{
  "source": "patent US4826838A",
  "about": "“Analgesic carbocyclic and heterocyclic carbonylmethylene-and carbonylmethypipidines and-pyrrolidines” (Sandoz Ltd., priority 1985, dated 1989)",
  "key": {"behavioral activity": {"system": "behavioral activity", "assay": "Studies A to D taken together (ethological and endocrinological tests)", "type": "in vivo, mouse", "experimental": "Male intruder mice show only low levels of social activity and high levels of defensive activity when introduced into the home cage of an individually housed adult male. Benzodiazepines and related drugs increase approaxh activities in this situation (Dixon 1982, Triangle 21: 95-105 (1982) Krsiak. M. Br. J. Pharmacol. 55: 141-150 (1975)). Compounds of formula I, in oral doses of 0.1 to 1 mg/kg increase approach oriented social activity.\nStretched attend postures in mice signify an ambivalent form of conflict which is inhibited by putative anxiolytics (Kaeserman HP Psychopharmacology (1986) 89: 31-37). Compounds of formula I, when given 2 hours before, reduce the duration of stretched attend postures to mice placed on a novel elevated platform.\nCompounds of formula I reduce such stress-induced corticosterone at 1 mg/kg p.o. whilst doses from 0.1 to 0.3 increase plasma levels of this hormone."}, "5-HT3 receptor": {"system": "5-HT3 receptor", "conditions": "cantharidine blister base; cited from earlier work"}, "migraine attack": {"system": "migraine attack", "conditions": "slow i.v. injection of 10 mg; cited from earlier work"}, "5-HT3 receptors": {"system": "5-HT3 receptors", "conditions": "isolated rabbit vagus nerve; cited from earlier work"}},
  "data": [
    {"smiles": "CN1C2CCC1CC(=CC(=O)c1c[nH]c3ccccc13)C2", "note": "[compound E, Indol-3-yl-carbonyl-methylenyl-3-(8-methyl-8-azabicyclo[3.2.1]octane)]", "values": [
      {"measurement": "relative activity among the compounds of formula I", "setting": "behavioral activity", "value": "most active"}
    ]},
    {"smiles": "CCN(CC)C(=O)[C@@H]1C=C2c3cccc4[nH]cc(c34)C[C@H]2N(C)C1", "note": "[lysergic acid diethylamide]", "values": [
      {"measurement": "inhibition of the algesic action of serotonin", "setting": "5-HT3 receptor", "value": "not inhibited"}
    ]},
    {"smiles": "CCN(CC)CCNC(=O)c1cc(Cl)c(N)cc1OC", "note": "[Metoclopramide]", "values": [
      {"measurement": "effect on a migraine attack", "setting": "migraine attack", "value": "immediate beneficial effect"}
    ]},
    {"smiles": "CN1C2CCC1CC(=CC(=O)c1c[nH]c3ccccc13)C2", "note": "(single isomer, unassigned; (-)) [compound G, (-)-Indol-3-yl-carbonyl-methylenyl-3-(8-methyl-8-azabicyclo[3.2.1]octane)]", "values": [
      {"measurement": "relative activity among the compounds of formula I", "setting": "behavioral activity", "value": "most active"}
    ]},
    {"smiles": "CC[C@@H](CO)NC(=O)[C@@H]1C=C2c3cccc4c3c(cn4C)C[C@H]2N(C)C1", "note": "[methysergide]", "values": [
      {"measurement": "blockade of the action of serotonin on the C fibre action potential", "setting": "5-HT3 receptors", "value": "not blocked"}
    ]},
    {"smiles": "CCN(CC)C(=O)[C@@H]1C=C2c3cccc4[nH]c(Br)c(c34)C[C@H]2N(C)C1", "note": "[its bromo derivative]", "values": [
      {"measurement": "inhibition of the algesic action of serotonin", "setting": "5-HT3 receptor", "value": "not inhibited"}
    ]},
    {"smiles": "CSc1ccc2c(c1)C(N1CCN(C)CC1)Cc1ccccc1S2", "note": "(stereo not drawn) [metitepine]", "values": [
      {"measurement": "blockade of the action of serotonin on the C fibre action potential", "setting": "5-HT3 receptors", "value": "not blocked"}
    ]},
    {"smiles": "CCN(CC)C(=O)[C@@H]1C=C2c3cccc4[nH]c(Br)c(c34)C[C@H]2N(C)C1", "note": "[BOL -148]", "values": [
      {"measurement": "blockade of the action of serotonin on the C fibre action potential", "setting": "5-HT3 receptors", "value": "not blocked"}
    ]},
    {"smiles": "CN1C2CCC1CC(=CC(=O)c1c[nH]c3ccccc13)C2", "note": "(single isomer, unassigned; (+)) [compound F, (+)-Indol-3-yl-carbonyl-methylenyl-3-(8-methyl-8-azabicyclo[3.2.1]octane)]", "values": [
      {"measurement": "relative activity among the compounds of formula I", "setting": "behavioral activity", "value": "most active"}
    ]}
  ]
}
